Experimental data as given in the supplement of paper PMC4862054.
Where “and” joins values, the source holds several entries; their conditions need not be identical. Identical values can stand only once.

What was measured:
Assay in all cases: normalised viability (% of control), CellTiter-Blue; higher = more viable cells (about 100 = DMSO control)
Settings in all cases: incubation time: 72 h
[1] = system: CAL-148
Protocol: (§1)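 DSRT, CellTiter-Blue viability, 72 h incubation. Signal is normalised to DMSO and benzethonium chloride controls. Value is the normalised response at dose 8.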

[2] = system: CAL-51
Protocol: as §1

[3] = system: CAL-85-1
Protocol: as §1

[4] = system: DU-4475
Protocol: as §1

[5] = system: HDQ-P1
Protocol: as §1

[6] = system: MDA-MB-453
Protocol: as §1

[7] = system: CAL-148; remark: listed apart in the source
Protocol: (§2)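 DSRT, CellTiter-Blue viability, 72 h incubation. Signal is normalised to DMSO and benzethonium chloride controls. Value is the normalised response at dose 7.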

[8] = system: CAL-51; remark: listed apart in the source
Protocol: as §2

[9] = system: CAL-85-1; remark: listed apart in the source
Protocol: as §2

[10] = system: DU-4475; remark: listed apart in the source
Protocol: as §2

[11] = system: HDQ-P1; remark: listed apart in the source
Protocol: as §2

[12] = system: MDA-MB-453; remark: listed apart in the source
Protocol: as §2

[13] = system: CAL-148; remark: listed apart in the source
Protocol: (§3)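 DSRT, CellTiter-Blue viability, 72 h incubation. Signal is normalised to DMSO and benzethonium chloride controls. Value is the normalised response at dose 6.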

[14] = system: CAL-51; remark: listed apart in the source
Protocol: as §3

[15] = system: CAL-85-1; remark: listed apart in the source
Protocol: as §3

[16] = system: DU-4475; remark: listed apart in the source
Protocol: as §3

[17] = system: HDQ-P1; remark: listed apart in the source
Protocol: as §3

[18] = system: MDA-MB-453; remark: listed apart in the source
Protocol: as §3

| SMILES | normalised viability [1] | normalised viability [2] | normalised viability [3] | normalised viability [4] | normalised viability [6] | normalised viability [13] | normalised viability [14] | normalised viability [15] | normalised viability [16] | normalised viability [17] | normalised viability [18] | also measured |
| --- | --- | --- | --- | --- | --- | --- | --- | --- | --- | --- | --- | --- |
| CC(C)C[C@@H](C(=O)N[C@H](C(=O)OC1CCCC1)c1ccccc1)[C@H](O)C(=O)NO [Tosedostat] (3000 nM) | 56.5% | 75.3% | 61.1% | 48.1% | 49.8% |  |  |  |  |  |  | normalised viability [5]: 72.9% |
| O=P1(N(CCCl)CCCl)NCCCO1 (stereo not given) [Cyclophosphamide] (12000 nM) | 97.2% | 105% | 93.7% | 104% | 109% |  |  |  |  |  |  | normalised viability [5]: 110% |
| COc1cc(OC2CCN(C)CC2)ccc1Nc1ncc2c(n1)n(C1CCCC1)c(=O)n2C [AZ 3146] (3000 nM) | 43.5% | 28% | 84.5% | 89% | 69.6% |  |  |  |  |  |  | normalised viability [5]: 72.4% |
| Cc1cc(Nc2cc(CN3CCOCC3)c3nc(C)c(Cc4ccc(Cl)cc4F)n3n2)n[nH]1 (1000 nM) |  |  |  |  |  |  |  |  |  |  |  | normalised viability [7]: 94.6%; normalised viability [8]: 85.8%; normalised viability [9]: 86.5%; normalised viability [10]: 94%; normalised viability [11]: 72.5%; normalised viability [12]: 53.3% |
| N#Cc1ccc(COC[C@H]2O[C@@H](n3c(NCc4ccc(Cl)c(Cl)c4)nc4c(N)ncnc43)[C@H](O)[C@@H]2O)cc1 (3000 nM) | 87.7% | 99.3% | 93% | 82.7% | 96% |  |  |  |  |  |  | normalised viability [5]: 89.5% |
| c1ccc2c(CCNc3ccc(Nc4ccncc4)cc3)c[nH]c2c1 [Serdemetan] (3000 nM) | 67% | 88.5% | 67.1% | 79.5% | 66.8% |  |  |  |  |  |  | normalised viability [5]: 89% |
| CNC(=O)c1cc(Oc2ccc(NC(=O)Nc3ccc(Cl)c(C(F)(F)F)c3)c(F)c2)ccn1 [Regorafenib] (3000 nM) | 95.8% | 69.5% | 86.6% | 67.6% | 53.1% |  |  |  |  |  |  | normalised viability [5]: 88.4% |
| CCc1c2c(nc3ccc(OC(=O)N4CCC(N5CCCCC5)CC4)cc13)-c1cc3c(c(=O)n1C2)COC(=O)[C@]3(O)CC [Irinotecan] (3000 nM) | 28% and 42% | 49.9% and 64.2% | 63.7% and 73.4% | 44.3% and 57.5% | 73.3% and 90.7% |  |  |  |  |  |  |  |
| S=P(N1CC1)(N1CC1)N1CC1 [Thio-TEPA] (10000 nM) |  |  |  |  |  |  |  |  |  |  |  | normalised viability [7]: 113%; normalised viability [8]: 89.6%; normalised viability [9]: 91.3%; normalised viability [10]: 96.6%; normalised viability [11]: 113%; normalised viability [12]: 121% |
| Oc1ccc2c(c1)CC[C@H](c1ccccc1)[C@@H]2c1ccc(OCCN2CCCC2)cc1 [Lasofoxifene] (30 nM) |  |  |  |  |  | 116% | 106% | 100% | 93% | 60.8% | 116% |  |
| Nc1cc(C(F)(F)F)c(-c2cc(N3CCOCC3)nc(N3CCOCC3)n2)cn1 [BKM-120] (1000 nM) |  |  |  |  |  |  |  |  |  |  |  | normalised viability [7]: 83.7%; normalised viability [8]: 56.9%; normalised viability [9]: 58.3%; normalised viability [10]: 92.9%; normalised viability [11]: 63.2%; normalised viability [12]: 32.4% |
| COC(=O)c1ccc2c(c1)NC(=O)/C2=C(\Nc1ccc(N(C)C(=O)CN2CCN(C)CC2)cc1)c1ccccc1 [BIBF 1120] (300 nM) |  |  |  |  |  | 96.1% | 93.9% | 111% | 91.9% | 100% | 105% |  |
| S=P(N1CC1)(N1CC1)N1CC1 [Thio-TEPA] (3000 nM) |  |  |  |  |  | 91.2% | 94.8% | 96.8% | 92.2% | 90.4% | 95.5% |  |
| COc1cc2/c(=N/c3ccc(Br)cc3F)nc[nH]c2cc1OCC1CCN(C)CC1 [Vandetanib] (300 nM) |  |  |  |  |  | 90.7% | 89.6% | 83.7% | 101% | 31.4% | 97.5% |  |
| COC(=O)c1ccc2c(c1)NC(=O)/C2=C(\Nc1ccc(N(C)C(=O)CN2CCN(C)CC2)cc1)c1ccccc1 [BIBF 1120] (1000 nM) |  |  |  |  |  |  |  |  |  |  |  | normalised viability [7]: 99%; normalised viability [8]: 68.2%; normalised viability [9]: 111%; normalised viability [10]: 96.8%; normalised viability [11]: 119%; normalised viability [12]: 78.2% |
| N#Cc1ccc(COC[C@H]2O[C@@H](n3c(NCc4ccc(Cl)c(Cl)c4)nc4c(N)ncnc43)[C@H](O)[C@@H]2O)cc1 (300 nM) |  |  |  |  |  | 110% | 117% | 96.9% | 91.7% | 67% | 112% |  |
| CCc1c2c(nc3ccc(OC(=O)N4CCC(N5CCCCC5)CC4)cc13)-c1cc3c(c(=O)n1C2)COC(=O)[C@]3(O)CC [Irinotecan] (300 nM) |  |  |  |  |  | 82.5% and 96.9% | 101% and 105% | 81.2% and 99.8% | 74.1% and 85.6% | 64.5% and 88.1% | 97.6% and 103% |  |
| Cc1cc(Nc2cc(CN3CCOCC3)c3nc(C)c(Cc4ccc(Cl)cc4F)n3n2)n[nH]1 (300 nM) |  |  |  |  |  | 89.3% | 90.5% | 103% | 104% | 45.8% | 63.9% |  |
| CN(C)c1nc(N(C)C)nc(N(C)C)n1 [Altretamine] (300 nM) |  |  |  |  |  | 112% | 108% | 95.9% | 110% | 88.5% | 112% |  |
| COCC[n+]1c2c(n(Cc3cnccn3)c1C)C(=O)c1ccccc1C2=O [YM155] (300 nM) |  |  |  |  |  | 1.6% | 2.3% | 1.89% | 10.8% | -0.08% | 10.9% |  |
| O=C(Nc1cccnc1)N1CCC(Cc2cccc(Oc3ccc(C(F)(F)F)cn3)c2)CC1 [PF-3845] (300 nM) |  |  |  |  |  | 103% | 97.9% | 93% | 95.4% | 127% | 98.4% |  |
